Laboratory results reported in article PMC9154192 (PLoS Biology, 2022).
Converted amounts (≈) assume the structure as drawn. “And” between values parts separate entries of the source, which are not always exact repeats. Equal entries are not always repeated. Where two headings read alike, the source gives them in different places.

How the values were obtained:
[1] = tested on: M. tuberculosis H37Rv; assay: Luminescence-based microbial cell viability assay; parameters: species or system Mycobacterium tuberculosis; settings: for RLU/50ul (replicates1-3), single values / RLU/ml (×100) / RLU/50ul (average): Fig 2C
[2] = tested on: M. tuberculosis H37Rv; assay type: in vivo, BALB/c mice; settings: for Efficacy in BALB/C mouse model of pulmonary tuberculosis, Average: Fig 4A
[3] = tested on: M. tuberculosis H37Rv; assay type: cell-based, Mycobacterium tuberculosis; settings: for RFU/200 μl (replicates1-3), single values / RFU/ml (×104) / RFU/200 μl (average): Fig 2A
[4] = Acute oral toxicity test in mice; assay type: in vivo, BALB/c mice; settings: single oral, 5 mice; for Deaths of mice, Days after dosing 0: day 0; for Deaths of mice, Days after dosing 1: day 1; for Deaths of mice, Days after dosing 2: day 2; for Deaths of mice, Days after dosing 3: day 3; for Deaths of mice, Days after dosing 4: day 4; for Deaths of mice, Days after dosing 5: day 5; for Deaths of mice, Days after dosing 6: day 6; for Deaths of mice, Days after dosing 7: day 7; for Deaths of mice, Days after dosing 8: day 8; for Deaths of mice, Days after dosing 9: day 9; for Deaths of mice, Days after dosing 10: day 10; for Deaths of mice, Days after dosing 11: day 11; for Deaths of mice, Days after dosing 12: day 12; for Deaths of mice, Days after dosing 13: day 13; for Deaths of mice, Days after dosing 14: day 14
Description: This experiment was conducted in a toxicity test at Soonchunhyang University's Animal Biological Safety Level 2 (ABSL-2) facility. The study protocol was reviewed and approved by Soonchunhyang University Animal Ethics Committee. Six-week-old female BALB/c were purchased from Koatech (Pyeongtaek, Korea) and five mice per group were tested. Drugs were orally administered once using a zonde and observed for two weeks. Corn oil (Sigma, USA) was used as the vehicle.

[5] = assay type: in vivo, Crl:CD SD rats; settings: single oral dose up to 2,000 mg/kg, SD rats, 2 weeks
Description: Toxicity studies were conducted at Biotoxtech (Korea) under review and approval from IACUC (170842, 180144, 170889) of Biotoxtech. All animals used in the toxicity test were purchased from OrientBio (Korea).
For acute toxicity study with a single oral administration, 6-week-old Crl:CD SD rats were used. For PP1S, a total of 8 groups (n = 4 rats/group) were used (0, 500, 1,000, and 2,000 mg/kg for females and males, respectively). For PP2S, a total of 4 groups (n = 5 rats/group) were used (0 and 2,000 mg/kg for females and males, respectively). […] Corn oil (Sigma, USA) was used as the vehicle. Control animals were treated only with the same volume of the vehicle.

[6] = in vitro; assay type: cell-based, murine; settings: mouse
Method in brief: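 Read-out: cell viability by WST-1 reduction and by MTT. The cytotoxicity workflow followed methods described previously.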

[7] = tested on: XDR M. tuberculosis; assay type: cell-based, Mycobacterium tuberculosis
[8] = tested on: XDR M. tuberculosis; assay type: cell-based, Mycobacterium tuberculosis; remark: listed apart in the source
[9] = tested on: M. tuberculosis H37Rv; assay type: in vivo, BALB/c mice; parameters: Efficacy in BALB/C mouse model of pulmonary tuberculosis, Average / Efficacy in BALB/C mouse model of pulmonary tuberculosis, values of mice 1-6: unit not given here; settings: Fig 4C
[10] = tested on: M. tuberculosis H37Ra; assay: microbe, parasite or virus in culture; assay type: cell-based, Mycobacterium tuberculosis; settings: Mycobacterium tuberculosis, H37RA
[11] = drug conc. 0.39, average of each replicate set
[12] = drug conc. 0.78, average of each replicate set
[13] = drug conc. 1.56, average of each replicate set

COC(=O)[C@@H]1CCC(=O)N1Cc1cc2ccc(OC)cc2c2cc(OC)c(OC)cc12 [PP1S, (S)-N-[(2,3,6-Trimethoxy-10-phenanthryl)methyl]-pyroglutamic acid methyl ester]
RLU/50ul (replicates1-3), single values ([1]; drug conc. 0.39): 1910 RLU/50ul and 1870 RLU/50ul and 3370 RLU/50ul and 3410 RLU/50ul and 3790 RLU/50ul and 1810 RLU/50ul and 1790 RLU/50ul and 1970 RLU/50ul and 1850 RLU/50ul | RLU/ml (×100) ([1]; drug conc. 0.39): 483.8 RLU/ml (×100) | RLU/50ul (average) [1, 11]: 3523 RLU/50ul and 1857 RLU/50ul and 1877 RLU/50ul | RLU/50ul (replicates1-3), single values ([1]; drug conc. 0.78): 1380 RLU/50ul and 1580 RLU/50ul and 2750 RLU/50ul and 2760 RLU/50ul and 3450 RLU/50ul and 2020 RLU/50ul and 2180 RLU/50ul and 1970 RLU/50ul and 1410 RLU/50ul | RLU/ml (×100) ([1]; drug conc. 0.78): 433.3 RLU/ml (×100) | RLU/50ul (average) [1, 12]: 2987 RLU/50ul and 2057 RLU/50ul and 1457 RLU/50ul | RLU/50ul (replicates1-3), single values ([1]; drug conc. 1.56): 750 RLU/50ul and 850 RLU/50ul and 1460 RLU/50ul and 1290 RLU/50ul and 960 RLU/50ul and 1050 RLU/50ul and 1110 RLU/50ul and 1070 RLU/50ul and 790 RLU/50ul | RLU/ml (×100) ([1]; drug conc. 1.56): 207.3 RLU/ml (×100) | RLU/50ul (average) [1, 13]: 1237 RLU/50ul and 1077 RLU/50ul and 797 RLU/50ul | concentration with significant antitubercular effect ([1]; luminescence-based assay): 1.56 µg/mL | Efficacy in BALB/C mouse model of pulmonary tuberculosis, Average ([2]; group dose 15, 6 mice): 4150 | Efficacy in BALB/C mouse model of pulmonary tuberculosis, Average ([2]; group dose 30, 6 mice): 2508 | reduction of bacterial load in lungs compared to drug-free group ([2]; mouse, in vivo): more than 90% | granulomatous lesions in lung sections (HE staining) ([2]; mouse, in vivo, po): limited number of small granulomatous lesions | RFU/200 μl (replicates1-3), single values ([3]; drug conc. 0.39): 59110 RFU/200 μl and 59240 RFU/200 μl and 59440 RFU/200 μl and 58960 RFU/200 μl and 59940 RFU/200 μl and 59150 RFU/200 μl and 59270 RFU/200 μl and 59190 RFU/200 μl and 59120 RFU/200 μl | RFU/ml (×104) ([3]; drug conc. 0.39): 29.6 RFU/ml (×104) | RFU/200 μl (average) [3, 11]: 59447 RFU/200 μl and 59203 RFU/200 μl and 59157 RFU/200 μl | RFU/200 μl (replicates1-3), single values ([3]; drug conc. 0.78): 53920 RFU/200 μl and 54090 RFU/200 μl and 54550 RFU/200 μl and 54830 RFU/200 μl and 54570 RFU/200 μl and 54130 RFU/200 μl and 54320 RFU/200 μl and 54040 RFU/200 μl and 53950 RFU/200 μl | RFU/ml (×104) ([3]; drug conc. 0.78): 27.1 RFU/ml (×104) | RFU/200 μl (average) [3, 12]: 54650 RFU/200 μl and 54163 RFU/200 μl and 53987 RFU/200 μl | RFU/200 μl (replicates1-3), single values ([3]; drug conc. 1.56): 29900 RFU/200 μl and 30040 RFU/200 μl and 30750 RFU/200 μl and 30860 RFU/200 μl and 30640 RFU/200 μl and 28310 RFU/200 μl and 28580 RFU/200 μl and 28120 RFU/200 μl and 29920 RFU/200 μl | RFU/ml (×104) ([3]; drug conc. 1.56): 14.8 RFU/ml (×104) | RFU/200 μl (average) [3, 13]: 30750 RFU/200 μl and 28337 RFU/200 μl and 29953 RFU/200 μl | concentration with significant antitubercular effect ([3]; fluorescence-based assay): 1.56 µg/mL | Deaths of mice, Days after dosing 0 ([4]; Dose 500 mg/kg): 0 | Deaths of mice, Days after dosing 1 ([4]; Dose 500 mg/kg): 0 | Deaths of mice, Days after dosing 2 ([4]; Dose 500 mg/kg): 0 | Deaths of mice, Days after dosing 3 ([4]; Dose 500 mg/kg): 0 | Deaths of mice, Days after dosing 4 ([4]; Dose 500 mg/kg): 0 | Deaths of mice, Days after dosing 5 ([4]; Dose 500 mg/kg): 0 | Deaths of mice, Days after dosing 6 ([4]; Dose 500 mg/kg): 0 | Deaths of mice, Days after dosing 7 ([4]; Dose 500 mg/kg): 0 | Deaths of mice, Days after dosing 8 ([4]; Dose 500 mg/kg): 0 | Deaths of mice, Days after dosing 9 ([4]; Dose 500 mg/kg): 0 | Deaths of mice, Days after dosing 10 ([4]; Dose 500 mg/kg): 0 | Deaths of mice, Days after dosing 11 ([4]; Dose 500 mg/kg): 0 | Deaths of mice, Days after dosing 12 ([4]; Dose 500 mg/kg): 0 | Deaths of mice, Days after dosing 13 ([4]; Dose 500 mg/kg): 0 | Deaths of mice, Days after dosing 14 ([4]; Dose 500 mg/kg): 0 | Deaths of mice, Days after dosing 0 ([4]; Dose 1000 mg/kg): 0 | Deaths of mice, Days after dosing 1 ([4]; Dose 1000 mg/kg): 0 | Deaths of mice, Days after dosing 2 ([4]; Dose 1000 mg/kg): 0 | Deaths of mice, Days after dosing 3 ([4]; Dose 1000 mg/kg): 0 | Deaths of mice, Days after dosing 4 ([4]; Dose 1000 mg/kg): 0 | Deaths of mice, Days after dosing 5 ([4]; Dose 1000 mg/kg): 0 | Deaths of mice, Days after dosing 6 ([4]; Dose 1000 mg/kg): 0 | Deaths of mice, Days after dosing 7 ([4]; Dose 1000 mg/kg): 0 | Deaths of mice, Days after dosing 8 ([4]; Dose 1000 mg/kg): 0 | Deaths of mice, Days after dosing 9 ([4]; Dose 1000 mg/kg): 0 | Deaths of mice, Days after dosing 10 ([4]; Dose 1000 mg/kg): 0 | Deaths of mice, Days after dosing 11 ([4]; Dose 1000 mg/kg): 0 | Deaths of mice, Days after dosing 12 ([4]; Dose 1000 mg/kg): 0 | Deaths of mice, Days after dosing 13 ([4]; Dose 1000 mg/kg): 0 | Deaths of mice, Days after dosing 14 ([4]; Dose 1000 mg/kg): 0 | Deaths of mice, Days after dosing 0 ([4]; Dose 2000 mg/kg): 0 | Deaths of mice, Days after dosing 1 ([4]; Dose 2000 mg/kg): 0 | Deaths of mice, Days after dosing 2 ([4]; Dose 2000 mg/kg): 0 | Deaths of mice, Days after dosing 3 ([4]; Dose 2000 mg/kg): 0 | Deaths of mice, Days after dosing 4 ([4]; Dose 2000 mg/kg): 0 | Deaths of mice, Days after dosing 5 ([4]; Dose 2000 mg/kg): 0 | Deaths of mice, Days after dosing 6 ([4]; Dose 2000 mg/kg): 0 | Deaths of mice, Days after dosing 7 ([4]; Dose 2000 mg/kg): 0 | Deaths of mice, Days after dosing 8 ([4]; Dose 2000 mg/kg): 0 | Deaths of mice, Days after dosing 9 ([4]; Dose 2000 mg/kg): 0 | Deaths of mice, Days after dosing 10 ([4]; Dose 2000 mg/kg): 0 | Deaths of mice, Days after dosing 11 ([4]; Dose 2000 mg/kg): 0 | Deaths of mice, Days after dosing 12 ([4]; Dose 2000 mg/kg): 0 | Deaths of mice, Days after dosing 13 ([4]; Dose 2000 mg/kg): 0 | Deaths of mice, Days after dosing 14 ([4]; Dose 2000 mg/kg): 0 | change in body weight compared to control group [5]: no significant change | clinical symptoms and death [5]: not observed | CC50 ([6]; L929): > 500 µg/mL | CC50 ([6]; L929, MTT assay (Table S1)): > 100 µg/mL | CC50 ([6]; RAW, MTT assay (Table S1)): > 100 µg/mL | CC50 ([6]; Raw264.7): > 500 µg/mL | growth of M. tuberculosis in macrophages (CFU) [7]: significantly inhibited the growth | RFU/200 μl (replicates1-3), single values [8]: 28550 RFU/200 μl (2×) and 31600 RFU/200 μl and 31980 RFU/200 μl and 30880 RFU/200 μl and 29180 RFU/200 μl and 29520 RFU/200 μl and 28730 RFU/200 μl and 28570 RFU/200 μl and 47010 RFU/200 μl and 47100 RFU/200 μl and 48600 RFU/200 μl and 48210 RFU/200 μl and 50840 RFU/200 μl and 43460 RFU/200 μl and 43510 RFU/200 μl and 43540 RFU/200 μl and 47050 RFU/200 μl and 50580 RFU/200 μl and 50770 RFU/200 μl and 53600 RFU/200 μl and 53640 RFU/200 μl and 54810 RFU/200 μl and 45790 RFU/200 μl and 45690 RFU/200 μl and 45900 RFU/200 μl and 50680 RFU/200 μl | RFU/ml (×104) [8]: 14.9 RFU/ml (×104) and 23.3 RFU/ml (×104) and 25.1 RFU/ml (×104) | concentration with significant antitubercular effect [8]: 1.56 µg/mL and 0.78 µg/mL | Efficacy in BALB/C mouse model of pulmonary tuberculosis, Average ([9]; group dose 30, 6 mice): 2683333 | Efficacy in BALB/C mouse model of pulmonary tuberculosis, Average ([9]; group dose 100, 6 mice): 1028333 | MIC [10]: 1.6 µg/mL (≈ 3.78 µM)
